Results from ChEMBL document CHEMBL5537115, “New broad-spectrum and potent antibacterial agents with dual-targeting mechanism: Promoting FtsZ polymerization and disrupting bacterial membranes” (Eur J Med Chem, 2024).

Tests used:
Format in all cases: functional
Enterococcus faecalis [1] = assay: Antibacterial activity against vancomycin-susceptible Enterococcus faecalis ATCC29212 assessed as bacterial growth inhibition incubated for 20 hrs by CLSI based broth microdilution method
Klebsiella pneumoniae = assay: Antibacterial activity against Klebsiella pneumoniae ATCC BAA-1902 assessed as bacterial growth inhibition incubated for 20 hrs by CLSI based broth microdilution method
Staphylococcus aureus [2] = assay: Antibacterial activity against erythromycin-susceptible Staphylococcus aureus ATCC25923 assessed as bacterial growth inhibition incubated for 20 hrs by CLSI based broth microdilution method
Enterococcus faecalis [3] = assay: Antibacterial activity against vancomycin-resistant Enterococcus faecalis ATCC51299 assessed as bacterial growth inhibition incubated for 20 hrs by CLSI based broth microdilution method
Bacillus subtilis = assay: Antibacterial activity against penicillin-susceptible Bacillus subtilis ATCC9372 assessed as bacterial growth inhibition incubated for 20 hrs by CLSI based broth microdilution method
Streptococcus pyogenes [4] = assay: Antibacterial activity against erythromycin-susceptible Streptococcus pyogenes 1 assessed as bacterial growth inhibition incubated for 20 hrs by CLSI based broth microdilution method
Enterococcus faecium [5] = assay: Antibacterial activity against vancomycin-resistant Enterococcus faecium ATCC51559 assessed as bacterial growth inhibition incubated for 20 hrs by CLSI based broth microdilution method
Staphylococcus aureus [6] = assay: Antibacterial activity against penicillin-resistant Staphylococcus aureus ATCC31007 assessed as bacterial growth inhibition incubated for 20 hrs by CLSI based broth microdilution method
Staphylococcus aureus [7] = assay: Antibacterial activity against Staphylococcus aureus clinical isolate assessed as bacterial growth inhibition incubated for 20 hrs by CLSI based broth microdilution method
Enterococcus faecium [8] = assay: Antibacterial activity against vancomycin-susceptible Enterococcus faecium ATCC19434 assessed as bacterial growth inhibition incubated for 20 hrs by CLSI based broth microdilution method
Acinetobacter baumannii = assay: Antibacterial activity against Acinetobacter baumannii ATCC19606 assessed as bacterial growth inhibition incubated for 20 hrs by CLSI based broth microdilution method
Escherichia coli [9] = assay: Antibacterial activity against wild-type Escherichia coli BW25113 assessed as bacterial growth inhibition incubated for 20 hrs by CLSI based broth microdilution method
[10] = test system: Staphylococcus epidermidis; assay: Antibacterial activity against penicillin-resistant Staphylococcus epidermidis clinical isolate assessed as bacterial growth inhibition incubated for 20 hrs by CLSI based broth microdilution method
Staphylococcus aureus [11] = assay: Antibacterial activity against methicillin-resistant Staphylococcus aureus ATCC43300 assessed as bacterial growth inhibition incubated for 20 hrs by CLSI based broth microdilution method
Bacillus pumilus = assay: Antibacterial activity against penicillin-susceptible Bacillus pumilus CMCC63202 assessed as bacterial growth inhibition incubated for 20 hrs by CLSI based broth microdilution method
Escherichia coli [12] = assay: Antibacterial activity against penicillin-susceptible Escherichia coli ATCC25922 assessed as bacterial growth inhibition incubated for 20 hrs by CLSI based broth microdilution method
Streptococcus pyogenes [13] = assay: Antibacterial activity against erythromycin-resistant Streptococcus pyogenes 2 clinical isolate assessed as bacterial growth inhibition incubated for 20 hrs by CLSI based broth microdilution method

| Structure (SMILES) | MIC (Enterococcus faecalis [1]) [µg/mL] | MIC (Klebsiella pneumoniae) [µg/mL] | MIC (Staphylococcus aureus [2]) [µg/mL] | MIC (Enterococcus faecalis [3]) [µg/mL] | MIC (Bacillus subtilis) [µg/mL] | MIC (Streptococcus pyogenes [4]) [µg/mL] | MIC (Enterococcus faecium [5]) [µg/mL] | MIC (Staphylococcus aureus [6]) [µg/mL] | MIC (Staphylococcus aureus [7]) [µg/mL] | MIC (Enterococcus faecium [8]) [µg/mL] | MIC (Acinetobacter baumannii) [µg/mL] | MIC (Escherichia coli [9]) [µg/mL] | MIC [10] [µg/mL] | MIC (Staphylococcus aureus [11]) [µg/mL] | MIC (Bacillus pumilus) [µg/mL] | MIC (Escherichia coli [12]) [µg/mL] | MIC (Streptococcus pyogenes [13]) [µg/mL] |
| --- | --- | --- | --- | --- | --- | --- | --- | --- | --- | --- | --- | --- | --- | --- | --- | --- | --- |
| CC(C)c1ccc(/C=C/c2cc(-c3ccccc3)c[n+](C)c2-c2ccccc2)cc1.[I-] | 4 | 32 | 0.5 | 4 | 1 | 2 | 4 | 4 | 0.5 | 4 | 8 | 32 | 4 | 2 | 2 | 16 | 2 |
| CCCCOc1ccc(/C=C/c2cc(-c3ccccc3)c[n+](C)c2-c2ccccc2)cc1.[I-] | 4 | 16 | 0.5 | 4 | 1 | 2 | 4 | 16 | 1 | 2 | 4 | 8 | 2 | 1 | 1 | 8 | 2 |
| C[n+]1cc(-c2ccccc2)cc(/C=C/c2ccc(C(C)(C)C)cc2)c1-c1ccccc1.[I-] | 4 | 32 | 0.25 | 1 | 0.5 | 8 | 2 | 4 | 2 | 2 | 4 | 16 | 2 | 1 | 2 | 16 | 2 |
| CCc1ccc(/C=C/c2cc(-c3ccc(C(C)(C)C)cc3)[n+](C)cc2-c2ccccc2C)cc1.[I-] | 2 | 8 | 0.125 | 1 | 0.5 | 4 | 0.5 | 1 | 0.5 | 1 | 2 | > 64 | 1 | 0.5 | 1 | 4 | 4 |
